Holding throughout (format): in vivo
For series [1], the system named is mice. The series is described as follows: Model of acetic acid-induced pain (cramps) on mice. Conditions: 0.75% acetic acid i.p. 2 hours after test compound, cramps counted 1st to 20th minute. As for the experimental part:
To reproduce acute visceral and somatic deep pain (nociceptive pain), the method of “acetic acid-induced pain (cramps)” was used in mice. The mice received a 0.75% solution of acetic acid intraperitoneally (at a dose of 0.1 ml/10 g of body weight), 2 hours after the administration of the test compounds. The number of cramps was counted from the first to the 20th minute (inclusive) after modeling the pathological state. The calculation of ED50 (the average effective dose of analgesic activity in this model for mice) was carried out using the least squares method.
Two samples of compound (I) were prepared and used in the ‘tail-flick’ test: • The first sample is a dispersed sample of Form I. This was prepared by adding a hot (65° C.) saturated solution of Comparative Example 1 (Form I) in ethyl alcohol to water at room temperature (about 20° C.) and atmospheric pressure (about 101.325 KPa). Dispersed Form I has a particle size (D(50)) of around 29 μm. • The second sample is a dispersed sample of Inventive Example 1, i.e. compound (I) in crystalline Form II. This sample is prepared by was dispersing Inventive Example 1 in a saline solution stabilized with Tween-80. The crystalline structure remains unchanged. Dispersed Form II has a particle size (D(50)) of around 24.3 μm.

A short description of series [2]: Determination of the mean lethal dose (LD50), oral administration to mice. As to conditions: mouse, in vivo, po, stabilized suspension in isotonic sodium chloride solution, 14 days observation. An excerpt:
(§1) The preliminary assignment of a substance to a certain toxicity class is based on an indicator that quantitatively characterizes the acute toxicity of the compound—the dose of the substance that causes a lethal effect in 50% of the population (LD50). Determination of this indicator in one of the types of experimental animals allows to extrapolate it for other species and justify the dose limits for the first phase of clinical trials.
(§2) To calculate the average dose, mortality/survival rates of the animals by the end of the observation period were used.

Another series concerns rats. The series is described as follows: Model of thermal nociception (tail flick test) on rats. As to conditions: rat tail-flick, latency 2 hours after administration, dispersed in saline with Tween 80. As for the experimental part:
Antinociceptive (analgesic) activity was evaluated on a rat tail “tail-flick” model using a focused light beam on rats. Latency time was determined by tail pulling away from the beam source, expressed in seconds. Animals were randomized with respect to the initial value of the latent period, with index from 4 to 12 seconds. The magnitude of the antinociceptive effect was indicated by the increasing of the length of the latent period (pain sensitivity threshold, PST). The initial indices of the PST and its changes 2 hours after the administration of the test compound were compared. The calculation of ED50 (the average effective dose of analgesic activity in this model for rats) was carried out using the least squares method.
Three samples of compound (I) were prepared and used in the ‘tail-flick’ test: • The first sample is prepared using the sample of Comparative Example 1, i.e. Form I, in its natural coarse crystalline state. In particular, the coarse crystalline sample of Comparative Example 1 is dispersed in a saline solution and stabilized with Tween 80). The crystalline structure (Form I) remains unchanged. • The second sample was prepared by micronizing (mechanically grinding) the coarse crystalline sample of Comparative Example 1, in order to prepare a sample of Form I having a smaller average particle size. In particular, the micronized sample is dispersed in a saline solution and stabilized with Tween 80). The crystalline structure (Form I) remains unchanged. • The third sample is a dispersed sample of Inventive Example 1, i.e. compound (I) in crystalline Form II. In particular, a sample of Inventive Example 1 is dispersed in a saline solution and stabilized with Tween 80). The crystalline structure (Form II) remains unchanged. The third sample has a similar average particle size to the second sample for a side-by-side comparison.
Background: Thermal pain tests record how soon the animal reacts.

Series [3] has as its system mice. The series is described as follows: Determination of the mean lethal dose (LD50), oral administration to mice. Conditions: stabilized suspension in isotonic sodium chloride solution, 14 days observation.
Source text: as §1, §2

We go through two compounds from patent US12129238B2, “Crystalline form of propoxazepam, the method of its making and use as medicinal agent” (priority 2018, dated 2024).

`CCCOC1N=C(c2ccccc2Cl)c2cc(Br)ccc2NC1=O` (stereo not shown) [Form I, 7-Bromo-3-propoxy-5-(2-chlorophenyl)-1,3-dihydrobenzo-[e]-[1,4]-diazepin-2-one]: the “ED50 (Average effective dose (50%))” value in the series on mice [1] (listed as Dispersed Form I) came to 1.87 mg/kg; in the series on rats (listed as Form I (coarse crystalline)) it was 1.82 mg/kg; in the series on rats (listed as Form I (micronized)), 1.06 mg/kg. The LD50 – broadly, the dose expected to kill half of the subjects tested – at 14 days in series [2] is 1120 ± 190 mg/kg.

Consider `CCCOC1N=C(c2ccccc2Cl)c2cc(Br)ccc2NC1=O` (stereo not shown) [Form II, 7-Bromo-3-propoxy-5-(2-chlorophenyl)-1,3-dihydrobenzo-[e]-[1,4]-diazepin-2-one], for which the “ED50 (Average effective dose (50%))” value in the series with mice [1] (listed as Dispersed Form II) is 0.89 mg/kg; with rats it was 0.17 mg/kg. The “LD50 (mean lethal dose)” value in the series on mice [3] is 1475 ± 402 mg/kg.
